Converted amounts (≈) assume the structure as drawn.
Columns and labels:
K. pneumoniae = experiment: microbe, parasite or virus in culture
Summary of the method: (§1)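 MICs were scored by eye after 18-20 h static incubation at 37 °C, with bacteria at 5 × 10^5 CFU mL^−1 in MHB. Peptides were serially diluted 2-fold over 12 points, top 128 or 64 μg mL^−1. CAMHB (CLSI) and 1% agarose-MHB variants were also run, at least six replicates.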

P. aeruginosa = experiment: microbe, parasite or virus in culture
Summary of the method: as §1

In the case of `NC[C@H]1O[C@H](O[C@H]2[C@H](O)[C@@H](O[C@H]3O[C@H](CO)[C@@H](O)[C@H](N)[C@H]3O)[C@H](N)C[C@@H]2N)[C@H](N)C[C@@H]1O` [TOB], the “MIC, broth microdilution” value (K. pneumoniae; K. pneumoniae 3010 parent strain not exposed to drug) is reported as 0.5 µg/mL (≈ 1.07 µM), the “MIC, broth microdilution” value (K. pneumoniae; K. pneumoniae 3010 spontaneous mutant, AA139 selection 4X, plate 1, colony 1, drug-free passage 1) is reported as 1 µg/mL (≈ 2.14 µM) and the “MIC, broth microdilution” value (K. pneumoniae; K. pneumoniae 3010 spontaneous mutant, AA139 selection 4X, plate 1, colony 1, drug-free passage 5) is reported as 0.25 µg/mL (≈ 0.535 µM). For the same compound, the “MIC, broth microdilution” value (K. pneumoniae; K. pneumoniae 3010 spontaneous mutant, AA139 selection 8X, plate 1, colony 1, drug-free passage 1) was 0.5 µg/mL (≈ 1.07 µM), the “MIC, broth microdilution” value (K. pneumoniae; K. pneumoniae 3010 spontaneous mutant, AA139 selection 8X, plate 1, colony 1, drug-free passage 5) was 0.25 µg/mL (≈ 0.535 µM) and the “MIC, broth microdilution” value (K. pneumoniae; K. pneumoniae ST258 parent strain not exposed to drug) was 16 µg/mL (≈ 34.2 µM). For the same compound, the “MIC, broth microdilution” value (K. pneumoniae; K. pneumoniae ST258 spontaneous mutant, AA139 selection 4X, plate 1, colony 1, drug-free passage 1) was 16, 16 µg/mL, the “MIC, broth microdilution” value (K. pneumoniae; K. pneumoniae ST258 spontaneous mutant, AA139 selection 4X, plate 1, colony 1, drug-free passage 5) was 16, 16 µg/mL and the “MIC, broth microdilution” value (P. aeruginosa; P. aeruginosa ATCC 27853 parent strain not exposed to drug) was 0.5 µg/mL (≈ 1.07 µM). For the same compound, the “MIC, broth microdilution” value (P. aeruginosa; P. aeruginosa ATCC 27853 spontaneous mutant, AA139 selection 4X, plate 1, colony 1, drug-free passage 1) was 1 µg/mL (≈ 2.14 µM), the “MIC, broth microdilution” value (P. aeruginosa; P. aeruginosa ATCC 27853 spontaneous mutant, AA139 selection 4X, plate 1, colony 1, drug-free passage 5) was 0.5 µg/mL (≈ 1.07 µM) and the “MIC, broth microdilution” value (P. aeruginosa; P. aeruginosa ATCC 27853 spontaneous mutant, AA139 selection 4X, plate 1, colony 2, drug-free passage 1) was 0.5, 0.5 µg/mL. For the same compound, the “MIC, broth microdilution” value (P. aeruginosa; P. aeruginosa ATCC 27853 spontaneous mutant, AA139 selection 4X, plate 1, colony 2, drug-free passage 5) was 0.5, 0.5 µg/mL, the “MIC, broth microdilution” value (P. aeruginosa; P. aeruginosa ATCC 27853 spontaneous mutant, AA139 selection 4X, plate 1, colony 3, drug-free passage 1) was 0.5, 0.5 µg/mL and the “MIC, broth microdilution” value (P. aeruginosa; P. aeruginosa ATCC 27853 spontaneous mutant, AA139 selection 4X, plate 1, colony 3, drug-free passage 5) was 0.5, 0.5 µg/mL. The “MIC, broth microdilution” value (P. aeruginosa; P. aeruginosa ATCC 27853 spontaneous mutant, AA139 selection 4X, plate 1, colony 4, drug-free passage 1) was 0.5, 0.5 µg/mL, the “MIC, broth microdilution” value (P. aeruginosa; P. aeruginosa ATCC 27853 spontaneous mutant, AA139 selection 4X, plate 1, colony 4, drug-free passage 5) was 0.5, 0.5 µg/mL and the “MIC, broth microdilution” value (P. aeruginosa; P. aeruginosa ATCC 27853 spontaneous mutant, AA139 selection 4X, plate 1, colony 5, drug-free passage 1) was 1 µg/mL (≈ 2.14 µM). The “MIC, broth microdilution” value (P. aeruginosa; P. aeruginosa ATCC 27853 spontaneous mutant, AA139 selection 4X, plate 1, colony 5, drug-free passage 5) was 0.5 µg/mL (≈ 1.07 µM), the “MIC, broth microdilution” value (P. aeruginosa; P. aeruginosa ATCC 27853 spontaneous mutant, AA139 selection 4X, plate 1, colony 6, drug-free passage 1) was 1 µg/mL (≈ 2.14 µM) and the “MIC, broth microdilution” value (P. aeruginosa; P. aeruginosa ATCC 27853 spontaneous mutant, AA139 selection 4X, plate 1, colony 6, drug-free passage 5) was 0.5 µg/mL (≈ 1.07 µM). For the same compound, the “MIC, broth microdilution” value (P. aeruginosa; P. aeruginosa ATCC 27853 spontaneous mutant, AA139 selection 4X, plate 2, colony 1, drug-free passage 1) was 0.5, 0.5 µg/mL, the “MIC, broth microdilution” value (P. aeruginosa; P. aeruginosa ATCC 27853 spontaneous mutant, AA139 selection 4X, plate 2, colony 1, drug-free passage 5) was 0.5, 0.5 µg/mL and the “MIC, broth microdilution” value (P. aeruginosa; P. aeruginosa ATCC 27853 spontaneous mutant, AA139 selection 4X, plate 2, colony 2, drug-free passage 1) was 0.5, 0.5 µg/mL. For the same compound, the “MIC, broth microdilution” value (P. aeruginosa; P. aeruginosa ATCC 27853 spontaneous mutant, AA139 selection 4X, plate 2, colony 2, drug-free passage 5) was 0.5, 0.5 µg/mL, the “MIC, broth microdilution” value (P. aeruginosa; P. aeruginosa ATCC 27853 spontaneous mutant, AA139 selection 4X, plate 2, colony 3, drug-free passage 1) was 1 µg/mL (≈ 2.14 µM) and the “MIC, broth microdilution” value (P. aeruginosa; P. aeruginosa ATCC 27853 spontaneous mutant, AA139 selection 4X, plate 2, colony 3, drug-free passage 5) was 0.5 µg/mL (≈ 1.07 µM). The “MIC, broth microdilution” value (P. aeruginosa; P. aeruginosa ATCC 27853 spontaneous mutant, AA139 selection 4X, plate 2, colony 4, drug-free passage 1) was 1 µg/mL (≈ 2.14 µM), the “MIC, broth microdilution” value (P. aeruginosa; P. aeruginosa ATCC 27853 spontaneous mutant, AA139 selection 4X, plate 2, colony 4, drug-free passage 5) was 0.5 µg/mL (≈ 1.07 µM) and the “MIC, broth microdilution” value (P. aeruginosa; P. aeruginosa ATCC 27853 spontaneous mutant, AA139 selection 8X, plate 1, colony 1, drug-free passage 1) was 1 µg/mL (≈ 2.14 µM). The “MIC, broth microdilution” value (P. aeruginosa; P. aeruginosa ATCC 27853 spontaneous mutant, AA139 selection 8X, plate 1, colony 1, drug-free passage 5) was 0.5 µg/mL (≈ 1.07 µM), the “MIC, broth microdilution” value (P. aeruginosa; P. aeruginosa ATCC 27853 spontaneous mutant, AA139 selection 8X, plate 1, colony 2, drug-free passage 1) was 1 µg/mL (≈ 2.14 µM) and the “MIC, broth microdilution” value (P. aeruginosa; P. aeruginosa ATCC 27853 spontaneous mutant, AA139 selection 8X, plate 1, colony 2, drug-free passage 5) was 0.5 µg/mL (≈ 1.07 µM). The “MIC, broth microdilution” value (P. aeruginosa; P. aeruginosa ATCC 27853 spontaneous mutant, AA139 selection 8X, plate 1, colony 3, drug-free passage 1) was 1 µg/mL (≈ 2.14 µM), the “MIC, broth microdilution” value (P. aeruginosa; P. aeruginosa ATCC 27853 spontaneous mutant, AA139 selection 8X, plate 1, colony 3, drug-free passage 5) was 0.5 µg/mL (≈ 1.07 µM) and the “MIC, broth microdilution” value (P. aeruginosa; P. aeruginosa ATCC 27853 spontaneous mutant, AA139 selection 8X, plate 1, colony 4, drug-free passage 1) was 1 µg/mL (≈ 2.14 µM). The “MIC, broth microdilution” value (P. aeruginosa; P. aeruginosa ATCC 27853 spontaneous mutant, AA139 selection 8X, plate 1, colony 4, drug-free passage 5) was 0.5 µg/mL (≈ 1.07 µM), the “MIC, broth microdilution” value (P. aeruginosa; P. aeruginosa ATCC 27853 spontaneous mutant, AA139 selection 8X, plate 1, colony 5, drug-free passage 1) was 0.5, 0.5 µg/mL and the “MIC, broth microdilution” value (P. aeruginosa; P. aeruginosa ATCC 27853 spontaneous mutant, AA139 selection 8X, plate 1, colony 5, drug-free passage 5) was 0.5, 0.5 µg/mL. The “MIC, broth microdilution” value (P. aeruginosa; P. aeruginosa UNT 138-1 parent strain not exposed to drug) was 0.5 µg/mL (≈ 1.07 µM) and the “MIC, broth microdilution” value (P. aeruginosa; P. aeruginosa UNT 138-1 spontaneous mutant, AA139 selection 4X, plate 1, colony 1, drug-free passage 1) was 1, 1 µg/mL.
